The source of these data is patent US20080125432A1 (Devgen NV, priority 2004, published 2008).

One assay concerns the target T1, human Kv4.3 (Homo sapiens, UniProt Q9UK17).
T1 construct: expressed in transfected cells; host or cells: transgenic C. elegans strain UG1755 (N2 injected with plasmid pGV8, integrated array)
T1 sequence (Q9UK17 1-655): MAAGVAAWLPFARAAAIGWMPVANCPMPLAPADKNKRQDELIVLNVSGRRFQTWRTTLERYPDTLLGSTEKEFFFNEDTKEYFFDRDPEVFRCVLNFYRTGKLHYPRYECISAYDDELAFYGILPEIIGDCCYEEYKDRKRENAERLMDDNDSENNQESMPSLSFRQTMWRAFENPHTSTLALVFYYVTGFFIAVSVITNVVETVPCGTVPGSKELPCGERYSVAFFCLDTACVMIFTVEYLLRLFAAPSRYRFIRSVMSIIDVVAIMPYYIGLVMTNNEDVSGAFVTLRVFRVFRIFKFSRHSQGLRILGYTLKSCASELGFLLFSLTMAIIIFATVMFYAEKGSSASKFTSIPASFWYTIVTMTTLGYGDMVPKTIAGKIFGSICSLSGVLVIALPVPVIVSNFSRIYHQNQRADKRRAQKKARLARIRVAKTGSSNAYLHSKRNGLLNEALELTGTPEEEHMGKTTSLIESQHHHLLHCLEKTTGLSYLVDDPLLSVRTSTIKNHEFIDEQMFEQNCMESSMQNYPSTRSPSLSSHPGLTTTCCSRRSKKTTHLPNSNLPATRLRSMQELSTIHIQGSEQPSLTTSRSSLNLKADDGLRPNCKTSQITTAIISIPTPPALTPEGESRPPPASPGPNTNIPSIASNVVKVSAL
Description: C. elegans based high-throughput screen for Kv4.3 modulators (pharynx pumping, Calcein AM uptake), transgenic strain UG1755. Type of assay: in vivo. The note with it: for Ratio N2/Kv4.3: EC50 on N2 divided by EC50 on the Kv4.3 expressing strain, cut-off 1.8; for EC50: transgenic strain UG1755 expressing human Kv4.3, read-out: EC50 (μM) Kv4.3 worm. An excerpt: A C. elegans based high-throughput screen for Kv4.3 modulators has been used to establish an in vivo SAR (structure-activity relationships: the effect of chemical structure on biological activity) on Kv4.3 for the compounds according to the present invention.
This assay has employed a stable transgenic C. elegans strain that functionally expressed human Kv4.3 in the pharynx and a visible selection GFP maker in body-wall muscle.
The pharynx is the feeding organ of C. elegans and contracts rhythmically 3-4 times per second. The pharynx contraction is controlled by the nervous system via action potentials similar to the human myocyte and can thus be used to study human ion channel physiology in vivo in C. elegans.
Introducing the human Kv4.3 channel into the C. elegans pharynx influences the C. elegans action potential in a characteristic fashion. The additional number of potassium channels increases potassium ion efflux, enhances re-polarization and thereby shortens the action potential duration. […] The shortened action potentials of the C. elegans pharynx resulting from expression of human Kv4.3, changes the pharynx contraction-relaxation cycle and consequently reduces the pumping/feeding in these transgenic animals. This change of pumping is an end-point amenable to high-throughput screening technology. The pumping end-point can be technically translated into a high-throughput read-out by the use of a pro-fluorescent dye. The pro-fluorescent dye is taken up by C. elegans depending on its pumping activity and converted into a fluorescent dye by enzymes located in its intestines. After a defined incubation period, the change of fluorescence intensity in the intestine can be measured with a plate reader.
The screening of the compounds according to the present invention has been performed in the C. elegans based high-throughput screen for Kv4.3 modulators described above. The method for testing the activity on human Kv4.3 of the compounds according to the invention with C. elegans strains expressing human Kv4.3 for their activity is the same as the method described in WO 03/097682. The method for testing the compounds on wild-type C. elegans strains not expressing human Kv4.3 is the same as the method described in WO 00/63427. Briefly, UG1755 animals have been grown in large numbers and staged young adults (no or only few eggs inside the uterus) have been harvested on the day of screening. Approximately 125 animals in 80 μl buffer have been dispensed per well of a “U shaped 96-well compound plate The compound plate contained already compound material at a final concentration of 30 μM in 0.3% DMSO. After one hour incubation 10 μl of the fluorescent label Calcein AM (CAM) have been added to achieve a final concentration of 5 μM CAM and 0.8% DMSO. After another four hours of incubation at 20° C., the drinking of C. elegans animals (or the “reaction 8 measured by the uptake of CAM) has been stopped by adding 10 μl of a 60 μM ivermectin solution. The fluorescence intensity (counts per second) has been measured 40 minutes after adding ivermectin with the Wallac plate reader at a wavelength of 535 nm (after excitation at 485 nm).
The active compounds have been identified and confirmed by dose-response analysis. An EC50 has been calculated and the results are listed under Table 3. Dose-response curves have been obtained at concentrations of 30 μM. EC50 has been calculated using XLfit 2.09 software package.

Another assay deals with Male mice (NRMI). Description: In vivo telemetry ECG recording in mice, intraperitoneal application. The note with it: consecutive dosing i.p. (3-15 μM/kg), n=5. On the procedure:
Male mice (NRMI) were anesthetized with a gas mixture of isoflurane, nitrous oxide and oxigen. Leads connected to a telemetry transmitter (TA10EA-F20, DSI, St. Paul, USA) were fixed by suture in the xiphoid and ventral neck region. The telemetry transmitter was placed under the skin on the back. Wounds were closed in layers and the animals were allowed to recover for at least 1 week.
On the day of the experiment the animals receive consecutive doses of vehicle i.p. at 60 min dosing intervals. ECG tracings (12 s duration) was recorded using the Data Sciences A.R.T. system. After completion of the experiment ECGs were analyzed automatically by Data Sciences ECG software (DSI, St. Paul, USA). QT and QRS intervals were measured manually in the stored ECGs. QTc was calculated from the QT interval and the corresponding heart rate using Bazett's formula. Heart rate was taken from the online analysis, given by the DSI Labpro and DSI A.R.T. systems (DSI, St. Paul, USA). Finally, ECG intervals were transferred to an Excel spreadsheet, checked for plausibility, and converted into 15 min averages.

On to `Cc1nc(Nc2ccc(F)cc2)sc1C(=O)N[C@H](C)c1ccc2ccccc2c1` [Compound 16, 2-(4-fluoro-phenylamino)-4-methyl-thiazole-5-carboxylic acid (R)-1-(naphthalen-2-yl)ethyl amide], for which, on human Kv4.3, the “Ratio N2/Kv4.3” value is over 1.8 and the EC50 is 32.1 µM.

Take `Cc1nc(Nc2ccc(Br)cc2)sc1C(=O)N[C@@H](C)c1ccc2ccccc2c1` [Compound 18, 2-(4-bromo-phenylamino)-4-methyl-thiazole-5-carboxylic acid (S)-1-(naphthalen-2-yl)ethyl amide]: at human Kv4.3, the “Ratio N2/Kv4.3” value is 2.4 and the EC50 was 13.5 µM.

In the case of `Cc1nc(Nc2ccc(Br)cc2)sc1C(=O)N[C@H](C)c1ccc2ccccc2c1` [Compound 19, 2-(4-bromo-phenylamino)-4-methyl-thiazole-5-carboxylic acid (R)-1-(naphthalen-2-yl)ethyl amide], at human Kv4.3, the “Ratio N2/Kv4.3” value is recorded as 4.7 and the EC50 is 7 µM.

Regarding `Cc1nc(Nc2ccc(Cl)cc2)sc1C(=O)N[C@@H]1CCC[C@H]1OCc1ccccc1` [Compound 30, 2-(4-chloro-phenylamino)-4-methyl-thiazole-5-carboxylic acid (1R,2R)-2-(benzyloxycyclopent-1-yl) amide], at human Kv4.3, the “Ratio N2/Kv4.3” value was over 6.4 and the EC50 is 9 µM.

For `COc1ccccc1Nc1nc(C)c(C(=O)N[C@H]2CCC[C@@H]2OCc2ccccc2)s1` [Compound 68, 2-(2-methoxy-phenylamino)-4-methyl-thiazole-5-carboxylic acid (1S,2S)-2-(benzyloxycyclopent-1-yl) amide], in the assay with Male mice (NRMI) (60 min dosing intervals), the “QT and QTc intervals in the mouse ECG” value is recorded as “significant, dose-dependent but late onset prolongation”. Further, in the assay on Male mice (NRMI), the Heart rate entry was “minor and not significant decrease”; the Locomotor activity entry is “reproducible rise after each of the subsequent injections”; the “PQ and QRS in the mouse ECG” value is “did not show dose-dependent changes”.

What is called EC50 is the concentration needed to bring the measured effect to its halfway point.
